Measurements published in PubChem BioAssay (NCI).
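Tested at 5 concentrations; 48 h exposure; 96-well plates; endpoints linearly interpolated, else capped at highest concentration. At the GI50, growth is halved. TGI denotes the concentration required for complete inhibition of growth.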

Key:
Assay in all cases: DTP human tumour cell line panel, 48 h
PC-3 prostate = tested on: PC-3 prostate
KM12 colon = tested on: KM12 colon
SR leukemia = tested on: SR leukemia
786-0 renal = tested on: 786-0 renal
HCC-2998 colon = tested on: HCC-2998 colon
UACC-257 melanoma = tested on: UACC-257 melanoma
HS 578T breast = tested on: HS 578T breast
NCI/ADR-RES ovarian = tested on: NCI/ADR-RES ovarian
SNB-75 CNS = tested on: SNB-75 CNS
KM20L2 colon = tested on: KM20L2 colon
DLD-1 colon = tested on: DLD-1 colon
LXFL 529 NSCLC = tested on: LXFL 529 NSCLC
HOP-18 NSCLC = tested on: HOP-18 NSCLC

Structure (SMILES)	TGI (PC-3 prostate) [µM]	TGI (KM12 colon) [µM]	TGI (SR leukemia) [µM]	TGI (786-0 renal) [µM]	TGI (HCC-2998 colon) [µM]	TGI (UACC-257 melanoma) [µM]	TGI (HS 578T breast) [µM]	TGI (NCI/ADR-RES ovarian) [µM]	TGI (SNB-75 CNS) [µM]	TGI (KM20L2 colon) [µM]	TGI (DLD-1 colon) [µM]	TGI (LXFL 529 NSCLC) [µM]	TGI (HOP-18 NSCLC) [µM]	GI50 (PC-3 prostate) [µM]	GI50 (KM12 colon) [µM]	GI50 (SR leukemia) [µM]	GI50 (HCC-2998 colon) [µM]	GI50 (UACC-257 melanoma) [µM]	GI50 (HS 578T breast) [µM]	GI50 (NCI/ADR-RES ovarian) [µM]
Nc1ccc(N=Nc2ccccc2)cc1	> 100	> 100	> 100	> 100	> 100	> 100	> 100	> 100	56											
COc1ccc(O)cc1		> 100	> 100	> 100	> 100	> 100			> 100	> 100	> 100	> 100								
NC1=NS(=O)(=O)Nc2nc(-c3ccc(Cl)cc3)c(-c3ccc(Cl)cc3)nc21		> 100	> 100	> 100	> 100	> 100			> 100		> 100	> 100	> 100							
COc1ccc(/C(Cl)=C(\C=O)c2ccc(F)cc2)cc1OC									13.7	34.1	78.4	76.7	44.2							
NC1=NS(=O)(=O)Nc2nc(-c3ccc([N+](=O)[O-])o3)[nH]c21		36.1		29	32.2				30.3	58.6	32	25.7	30.3							
Nc1ccc2[nH]c3c(-c4ccccc4)nccc3c2c1		> 100			96.8	> 100		> 100	> 92.7	> 100	> 100		> 100							
O=C(NC(Cc1ccc(I)cc1)C(=O)O)c1ccc(Br)cc1 (stereo unspecified)		> 100			> 100	> 100		> 100	> 100	> 100	> 100		> 100							
N=C(N)c1ccc(N=Nc2c(O)ccc3c2[nH]c2ccccc23)cc1	> 60.3					> 89.1	> 100	> 100	> 100											
COC(=O)C1=C(C(=O)OC)SC2(S1)C1=C(CCCC1)SC(C(=O)OC)=C2C(=O)OC	17.8	19			28.2	28.9	30.7	40.9												
C[C@]12CCc3nc(Nc4ccccc4)sc3C1=CC[C@@H]1[C@@H]2CC[C@]2(C)/C(=N/NC(N)=S)CC[C@@H]12	> 100	> 100	> 100		> 100	> 100	> 100	> 100						2.95	6.17	1.71	32.6	6.1	> 100	4.01
CCOC(=O)/C1=C(\C)N(c2ccc(C)cc2)C(=O)c2ccccc2C(=O)c2c(OC(C)=O)ccc(OC(C)=O)c21	> 100	40.6	35.7	> 100		80.7	48.2	53.9	> 100											
COc1cc(Nc2c3ccccc3nc3ccccc23)ccc1NS(C)(=O)=O			15.2		28.8	24.2			47.1	17.1	22	35	26.3							
Cc1ccc(S(=O)(=O)OCC(=O)O)cc1	> 100		> 100	> 100		> 100	> 100	> 100												
NC1=NS(=O)(=O)Nc2nc(-c3ccc([N+](=O)[O-])cc3)[nH]c21		> 100	> 100	> 100	> 100				> 100		> 100	> 100	> 100							
